Assay results from patent publication US20220233708A1, “ANTIBODY-DRUG CONJUGATE, INTERMEDIATE THEREOF, PREPARATION METHOD THEREFOR AND APPLICATION THEREOF” (priority 2019, published 2022).
Starred links: 1 amine or outer side, 2 acyl side, 3 side chain; linkers in the order of their positions; H or OH if unused. Non-standard residues stand in square brackets, D forms with d. Residues, ends and D or L forms follow the SMILES beside them. *: point of attachment. Exatecan = CC[C@@]1(O)C(=O)OCc2c1cc1n(c2=O)Cc2c-1nc1cc(F)c(C)c3c1c2[C@@H](N*)CC3; X2 = CC[C@@]1(O)C(=O)OC(=O)C2=C1C=C1c3nc4cc(F)c(C)c5c4c(c3CN1C2)[C@@H](N*)CC5; Hexanoyl(6-maleimido) = O=C1C=CC(=O)N1CCCCCC(=O)*; X3 = O=C1C=CC(=O)N1CC1CCC(C(=O)*)CC1; X1 = O=C1C=C(Br)C(=O)N1CCCCCC(=O)*; NHCH2OCH2CO = O=C(COCN[*:1])[*:2]

Legend:
Format in all cases: physicochemical
[1] = test system: anti-Claudin18.2 antibody IMAB362; assay: Coupling of linker-drug conjugates with IMAB362; settings: coupling with IMAB362, highest DAR (excessive coupling)
Protocol: (§1) The anti-B7-H3 antibody P2E5, anti-Claudin18.2 antibody IMAB362, and anti-HER2 antibody Trastuzumab (concentration was 15 mg/mL) were replaced into 50 mM PB/1.0 mM EDTA buffer (pH 7.0) by a G25 desalting column, respectively. 12 equivalents of TECP was added and the mixture was stirred at 37° C. for 2 hours to fully open the disulfide bonds between the antibody chains. Then phosphoric acid was used to adjust the pH of the reduced antibody solution to 6.0, and the temperature of the water bath was lowered to 25° C. for coupling reaction. […] After the reaction was completed, the sample was filtered with a 0.22 μm membrane. Uncoupled small molecules were purified and removed by a tangential flow ultrafiltration system. The buffer was 50 mM PB/1.0 mM EDTA solution (pH 6.0). After purification, sucrose (final concentration was 6%) was added, and the mixture was stored in a refrigerator at −20° C. The UV method was used to measure the absorbance values at 280 nm and 370 nm respectively, and the DAR value was calculated.

anti-B7-H3 antibody P2E5 = assay: Coupling of linker-drug conjugates with P2E5; settings: coupling with P2E5, highest DAR (excessive coupling)
Protocol: as §1

[2] = test system: anti-HER2 antibody Trastuzumab; assay: Coupling of linker-drug conjugates with Trastuzumab; settings: highest DAR (excessive coupling)
Protocol: as §1

CC[C@@]1(O)C(=O)OCc2c1cc1n(c2=O)Cc2c-1nc1cc(F)c(C)c3c1c2[C@@H](NC(=O)COCNC(=O)CNC(=O)[C@H](Cc1ccccc1)NC(=O)CNC(=O)CNC(=O)C1CCC(CN2C(=O)C=CC2=O)CC1)CC3 (stereo partly drawn) [LE01] (X3-GGFG[NHCH2OCH2CO]-Exatecan)
Ratio of aggregates [1]: 2.0% | Whether precipitation [1]: No | Ratio of aggregates (anti-B7-H3 antibody P2E5): 2.1% | Whether precipitation (anti-B7-H3 antibody P2E5): No | Ratio of aggregates [2]: 0.2% | Whether precipitation [2]: No

CCC1(O)C(=O)OC(=O)C2=C1C=C1c3nc4cc(F)c(C)c5c4c(c3CN1C2)C(NC(=O)COCNC(=O)CNC(=O)C(Cc1ccccc1)NC(=O)CNC(=O)CNC(=O)C(CCCCN1C(=O)C=CC1=O)S(=O)(=O)O)CC5 (stereo not drawn) [LE02]
Ratio of aggregates [1]: 1.8% | Whether precipitation [1]: No | Ratio of aggregates (anti-B7-H3 antibody P2E5): 1.3% | Whether precipitation (anti-B7-H3 antibody P2E5): No | Ratio of aggregates [2]: 0.2% | Whether precipitation [2]: No

CCC1(O)C(=O)OC(=O)C2=C1C=C1c3nc4cc(F)c(C)c5c4c(c3CN1C2)C(NC(=O)COCNC(=O)CNC(=O)C(Cc1ccccc1)NC(=O)CNC(=O)CNC(=O)C(CN)N1C(=O)C=CC1=O)CC5 (stereo not drawn) [LE03]
Ratio of aggregates [1]: 1.5% | Whether precipitation [1]: No | Ratio of aggregates (anti-B7-H3 antibody P2E5): 1.1% | Whether precipitation (anti-B7-H3 antibody P2E5): No | Ratio of aggregates [2]: 0.2% | Whether precipitation [2]: No

CCC1(O)C(=O)OC(=O)C2=C1C=C1c3nc4cc(F)c(C)c5c4c(c3CN1C2)C(NC(=O)COCNC(=O)CNC(=O)C(Cc1ccccc1)NC(=O)CNC(=O)CNC(=O)CCOCCOCCOCCOCCOCCOCCOCCOCCN1C(=O)C=CC1=O)CC5 (stereo not drawn) [LE04]
Ratio of aggregates [1]: 2.1% | Whether precipitation [1]: No | Ratio of aggregates (anti-B7-H3 antibody P2E5): 2.5% | Whether precipitation (anti-B7-H3 antibody P2E5): No | Ratio of aggregates [2]: 0.1% | Whether precipitation [2]: No

CC[C@@]1(O)C(=O)OCc2c1cc1n(c2=O)Cc2c-1nc1cc(F)c(C)c3c1c2[C@@H](NC(=O)COCNC(=O)CNC(=O)[C@H](Cc1ccccc1)NC(=O)CNC(=O)CNC(=O)CCCCCN1C(=O)C=C(Br)C1=O)CC3 [LE05] (X1-GGFG[NHCH2OCH2CO]-Exatecan)
Ratio of aggregates [1]: 2.3% | Whether precipitation [1]: No | Ratio of aggregates (anti-B7-H3 antibody P2E5): 1.6% | Whether precipitation (anti-B7-H3 antibody P2E5): No | Ratio of aggregates [2]: 0.1% | Whether precipitation [2]: No

CC[C@@]1(O)C(=O)OC(=O)C2=C1C=C1c3nc4cc(F)c(C)c5c4c(c3CN1C2)[C@@H](NC(=O)COCNC(=O)CNC(=O)[C@H](Cc1ccccc1)NC(=O)CNC(=O)CNC(=O)[C@H](CCCCN)NC(=O)CCCCCN1C(=O)C=CC1=O)CC5 [LE06] ({Hexanoyl(6-maleimido)}-KGGFG[NHCH2OCH2CO]-X2)
Ratio of aggregates [1]: 1.7% | Whether precipitation [1]: No | Ratio of aggregates (anti-B7-H3 antibody P2E5): 1.2% | Whether precipitation (anti-B7-H3 antibody P2E5): No | Ratio of aggregates [2]: 0.5% | Whether precipitation [2]: No

CC[C@@]1(O)C(=O)OCc2c1cc1n(c2=O)Cc2c-1nc1cc(F)c(C)c3c1c2[C@@H](NC(=O)COCNC(=O)CNC(=O)[C@H](Cc1ccccc1)NC(=O)CNC(=O)[C@H](CCCCN)NC(=O)CCCCCN1C(=O)C=CC1=O)CC3.O=C(O)C(F)(F)F [LE07] ({Hexanoyl(6-maleimido)}-KGFG[NHCH2OCH2CO]-Exatecan)
Ratio of aggregates [1]: 1.6% | Whether precipitation [1]: No | Ratio of aggregates (anti-B7-H3 antibody P2E5): 1.3% | Whether precipitation (anti-B7-H3 antibody P2E5): No | Ratio of aggregates [2]: 0.5% | Whether precipitation [2]: No

CC[C@@]1(O)C(=O)OC(=O)C2=C1C=C1c3nc4cc(F)c(C)c5c4c(c3CN1C2)[C@@H](NC(=O)COCN(CCN(C)C)C(=O)OCc1ccc(NC(=O)[C@H](C)NC(=O)[C@@H](NC(=O)CCCCCN2C(=O)C=CC2=O)C(C)C)cc1)CC5 [LE13]
Ratio of aggregates [1]: 2.3% | Whether precipitation [1]: No | Ratio of aggregates (anti-B7-H3 antibody P2E5): 1.5% | Whether precipitation (anti-B7-H3 antibody P2E5): No | Ratio of aggregates [2]: 0.1% | Whether precipitation [2]: No

CC[C@@]1(O)C(=O)OC(=O)C2=C1C=C1c3nc4cc(F)c(C)c5c4c(c3CN1C2)[C@@H](NC(=O)COCN(CCS(C)(=O)=O)C(=O)OCc1ccc(NC(=O)[C@H](C)NC(=O)[C@@H](NC(=O)C(CCCCN2C(=O)C=CC2=O)S(=O)(=O)O)C(C)C)cc1)CC5 (stereo partly drawn) [LE15]
Ratio of aggregates [1]: 1.6% | Whether precipitation [1]: No | Ratio of aggregates (anti-B7-H3 antibody P2E5): 2.1% | Whether precipitation (anti-B7-H3 antibody P2E5): No | Ratio of aggregates [2]: 0.2% | Whether precipitation [2]: No

CC[C@@]1(O)C(=O)OC(=O)C2=C1C=C1c3nc4cc(F)c(C)c5c4c(c3CN1C2)[C@@H](NC(=O)COCN(CCS(C)(=O)=O)C(=O)OCc1ccc(NC(=O)[C@H](C)NC(=O)[C@@H](NC(=O)C2CCC(CN3C(=O)C=CC3=O)CC2)C(C)C)cc1)CC5 (stereo partly drawn) [LE16]
Ratio of aggregates [1]: 1.5% | Whether precipitation [1]: No | Ratio of aggregates (anti-B7-H3 antibody P2E5): 2.0% | Whether precipitation (anti-B7-H3 antibody P2E5): No | Ratio of aggregates [2]: 0.5% | Whether precipitation [2]: No

CC[C@@]1(O)C(=O)OC(=O)C2=C1C=C1c3nc4cc(F)c(C)c5c4c(c3CN1C2)[C@@H](NC(=O)COCN(CCN(C)C)C(=O)OCc1ccc(NC(=O)[C@H](C)NC(=O)[C@@H](NC(=O)C2CCC(CN3C(=O)C=CC3=O)CC2)C(C)C)cc1)CC5 (stereo partly drawn) [LE17]
Ratio of aggregates [1]: 1.6% | Whether precipitation [1]: No | Ratio of aggregates (anti-B7-H3 antibody P2E5): 1.5% | Whether precipitation (anti-B7-H3 antibody P2E5): No | Ratio of aggregates [2]: 0.1% | Whether precipitation [2]: No

CC[C@@]1(O)C(=O)OC(=O)C2=C1C=C1c3nc4cc(F)c(C)c5c4c(c3CN1C2)[C@@H](NC(=O)COCN(CCS(C)(=O)=O)C(=O)OCc1ccc(NC(=O)[C@H](C)NC(=O)[C@@H](NC(=O)CCCn2cc(CNC3CCC(CN4C(=O)C=CC4=O)CC3)nn2)C(C)C)cc1)CC5 (stereo partly drawn) [LE18]
Ratio of aggregates [1]: 2.1% | Whether precipitation [1]: No | Ratio of aggregates (anti-B7-H3 antibody P2E5): 1.6% | Whether precipitation (anti-B7-H3 antibody P2E5): No | Ratio of aggregates [2]: 0.1% | Whether precipitation [2]: No

CC[C@@]1(O)C(=O)OC(=O)C2=C1C=C1c3nc4cc(F)c(C)c5c4c(c3CN1C2)[C@@H](NC(=O)COCN(CCS(C)(=O)=O)C(=O)OCc1ccc(NC(=O)[C@H](C)NC(=O)[C@@H](NC(=O)CCCn2cc(CNC(=O)CCCCCN3C(=O)C=CC3=O)nn2)C(C)C)cc1)CC5 [LE19]
Ratio of aggregates [1]: 1.4% | Whether precipitation [1]: No | Ratio of aggregates (anti-B7-H3 antibody P2E5): 1.2% | Whether precipitation (anti-B7-H3 antibody P2E5): No | Ratio of aggregates [2]: 0.2% | Whether precipitation [2]: No

CC[C@@]1(OCN(CCS(C)(=O)=O)C(=O)OCc2ccc(NC(=O)[C@H](C)NC(=O)[C@@H](NC(=O)CCCCCN3C(=O)C=CC3=O)C(C)C)cc2)C(=O)OCc2c1cc1n(c2=O)Cc2c-1nc1cc(F)c(C)c3c1c2[C@@H](NC(=O)CO)CC3 [LE21]
Ratio of aggregates [1]: 2.3% | Whether precipitation [1]: No | Ratio of aggregates (anti-B7-H3 antibody P2E5): 2.2% | Whether precipitation (anti-B7-H3 antibody P2E5): No | Ratio of aggregates [2]: 0.2% | Whether precipitation [2]: No

CC[C@@]1(OCN(CCN(C)C)C(=O)OCc2ccc(NC(=O)[C@H](C)NC(=O)[C@@H](NC(=O)CCCCCN3C(=O)C=CC3=O)C(C)C)cc2)C(=O)OCc2c1cc1n(c2=O)Cc2c-1nc1cc(F)c(C)c3c1c2[C@@H](NC(=O)CO)CC3 [LE22]
Ratio of aggregates [1]: 1.5% | Whether precipitation [1]: No | Ratio of aggregates (anti-B7-H3 antibody P2E5): 2.1% | Whether precipitation (anti-B7-H3 antibody P2E5): No | Ratio of aggregates [2]: 0.5% | Whether precipitation [2]: No
